Laboratory results as given in the supplement of paper PMC10307832.

Columns and labels:
Veliparib + Dasatinib = compound: C[C@]1(c2nc3c(C(N)=O)cccc3[nH]2)CCCN1 [Veliparib] + Cc1nc(Nc2ncc(C(=O)Nc3c(C)cccc3Cl)s2)cc(N2CCN(CCO)CC2)n1 [Dasatinib] (partner 0.075 µM); test: relative viability (nuclei count vs DMSO), 5 days (fraction); higher = more cells survive
Method in brief: (§1)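 Dosing by pin tool came one day after lung cancer cell lines were seeded in 1536-well plates, using either one drug or a fixed anchor-drug dose plus five library-drug doses (not always all listed) in √10 steps. After 5 days, nuclei were counted on 4× images. Relative viability is treated-well nuclei count divided by vehicle-well nuclei count, and values are medians of duplicate plates.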

[1] = compound: COC1=CC=C(C=C1)CN2C=CC3=C2C=C(C=C3)C(=O)NO + CC(=O)Nc1cccc(-n2c(=O)n(C3CC3)c(=O)c3c(Nc4ccc(I)cc4F)n(C)c(=O)c(C)c32)c1 [Trametinib] (partner 0.02 µM); test: as above
Method in brief: as §1

Cell Line | relative viability (Veliparib + Dasatinib; first compound 0.06325 µM) | relative viability (Veliparib + Dasatinib; first compound 0.2 µM) | relative viability (Veliparib + Dasatinib; first compound 0.6325 µM) | relative viability (Veliparib + Dasatinib; first compound 2 µM) | relative viability ([1]; first compound 0.08 µM) | relative viability ([1]; first compound 0.253 µM) | relative viability ([1]; first compound 0.8 µM) | relative viability ([1]; first compound 2.53 µM) | relative viability ([1]; first compound 8 µM) | relative viability (Veliparib + Dasatinib; first compound 0.02 µM)
LC-2-ad | 0.423 | 0.669 | 0.556 | 0.388 | 0.841 | 0.899 | 0.882 | 0.938 | 0.991 | 
LOU-NH91 | 0.522 | 0.537 | 0.544 | 0.53 |  | 0.754 | 0.778 | 0.808 | 0.766 | 0.529
NCI-H1623 | 0.458 | 0.598 | 0.524 | 0.462 |  |  |  |  |  | 
NCI-H727 | 0.365 | 0.305 | 0.47 | 0.331 | 0.418 | 0.383 | 0.377 | 0.37 | 0.371 | 0.267
NCI-H2347 | 0.266 | 0.275 | 0.336 | 0.315 | 0.268 | 0.313 | 0.303 | 0.283 | 0.235 | 0.327
NCI-H1993 | 0.571 | 0.537 | 0.64 | 0.522 | 0.526 | 0.564 | 0.518 | 0.514 | 0.543 | 0.496
HCC-827 | 0.302 | 0.266 | 0.205 | 0.364 | 0.539 | 0.537 | 0.528 | 0.533 | 0.514 | 0.362
NCI-H1975 | 0.37 | 0.331 | 0.368 | 0.372 | 0.308 | 0.348 | 0.359 | 0.413 | 0.349 | 0.336
NCI-H1793 | 0.448 | 0.408 | 0.277 | 0.448 |  | 0.471 | 0.449 | 0.416 | 0.336 | 0.398
NCI-H1651 | 0.403 | 0.383 | 0.4 | 0.348 | 0.798 | 0.917 | 0.867 | 0.787 | 0.828 | 0.296
NCI-H1755 | 0.37 | 0.401 | 0.375 | 0.413 | 0.711 | 0.77 | 0.791 | 0.758 | 0.753 | 0.392
LCLC-103H | 0.469 | 0.449 | 0.495 | 0.482 | 0.653 | 0.65 | 0.715 | 0.694 | 0.679 | 0.5
NCI-H1915 | 0.329 | 0.301 | 0.314 | 0.297 | 0.282 | 0.297 | 0.305 | 0.32 | 0.31 | 0.307
HOP-62 | 0.549 | 0.705 | 0.648 | 0.651 | 0.362 | 0.399 | 0.371 | 0.391 | 0.375 | 0.634
HARA | 0.383 | 0.294 | 0.231 | 0.267 |  | 0.607 | 0.668 | 0.849 | 0.705 | 0.254
NCI-H520 | 0.233 | 0.176 | 0.168 | 0.188 | 0.426 | 0.723 | 0.74 | 0.555 | 0.723 | 0.194
NCI-H1395 | 0.381 | 0.46 | 0.414 | 0.437 |  | 1.07 | 1.06 | 0.96 | 0.995 | 0.379
NCI-H1792 | 0.79 | 0.822 | 0.707 | 0.717 | 0.459 | 0.426 | 0.394 | 0.379 | 0.423 | 0.79

Cell Line | relative viability (Veliparib + Dasatinib; first compound 0.06325 µM) | relative viability (Veliparib + Dasatinib; first compound 0.2 µM) | relative viability (Veliparib + Dasatinib; first compound 0.6325 µM) | relative viability (Veliparib + Dasatinib; first compound 2 µM) | relative viability ([1]; first compound 0.08 µM) | relative viability ([1]; first compound 0.253 µM) | relative viability ([1]; first compound 0.8 µM) | relative viability ([1]; first compound 2.53 µM) | relative viability ([1]; first compound 8 µM) | relative viability (Veliparib + Dasatinib; first compound 0.02 µM)
EKVX | 0.658 | 0.66 | 0.532 | 0.48 |  | 0.28 | 0.345 | 0.366 | 0.305 | 
CAL-12T | 0.354 | 0.386 | 0.308 | 0.468 | 0.387 | 0.347 | 0.33 | 0.335 | 0.301 | 0.287
SW 900 |  | 0.538 | 0.644 | 0.696 | 0.722 | 0.774 | 0.872 | 0.674 | 0.766 | 
NCI-H1734 | 0.473 | 0.569 | 0.443 | 0.505 |  | 0.739 | 0.725 | 0.716 | 0.732 | 0.523
NCI-H522 | 0.904 | 0.963 | 0.831 | 0.812 |  | 0.812 | 0.678 | 0.767 | 0.64 | 0.887
BEN | 0.292 | 0.377 | 0.361 | 0.266 | 0.936 | 1.03 | 0.942 | 0.889 | 0.961 | 0.232
NCI-H2126 | 0.539 | 0.612 | 0.658 | 0.668 | 0.569 | 0.592 | 0.6 | 0.622 | 0.581 | 0.618
NCI-H1563 | 0.474 | 0.4 | 0.491 | 0.482 |  |  |  |  |  | 0.462
NCI-H2023 | 0.596 | 0.532 | 0.547 | 0.625 | 0.478 | 0.594 | 0.474 | 0.589 | 0.48 | 0.511
NCI-H1437 | 0.36 | 0.424 | 0.421 | 0.249 | 0.452 | 0.494 | 0.538 | 0.66 | 0.57 | 0.212
NCI-H322M | 0.231 | 0.246 | 0.27 | 0.253 |  |  | 0.493 | 0.495 | 0.485 | 
COR-L23 | 0.434 | 0.361 | 0.425 | 0.471 | 0.5 | 0.617 | 0.627 | 0.615 | 0.522 | 0.428
NCI-H2009 | 0.319 | 0.331 | 0.29 | 0.292 | 0.288 | 0.264 | 0.261 | 0.248 | 0.194 | 0.332
NCI-H1355 | 0.676 | 0.682 | 0.611 | 0.524 | 0.42 | 0.433 | 0.403 | 0.473 | 0.44 | 
NCI-H838 | 0.287 | 0.256 | 0.246 | 0.326 | 0.346 | 0.472 | 0.561 | 0.547 | 0.429 | 0.269
EPLC-272H | 0.367 | 0.323 | 0.325 | 0.36 |  | 0.314 | 0.297 | 0.308 | 0.238 | 0.291
NCI-H23 | 0.71 | 0.753 | 0.75 | 0.87 | 0.298 | 0.445 | 0.397 | 0.381 | 0.283 | 0.622
